Drawing on US8183262B2, “Pyridine derivatives as mGluR2 antagonists” (Hoffmann-La Roche Inc., priority 2007, dated 2012), this text covers melting point for eleven compounds.

Usually melting point stands for the temperature of the solid-liquid transition.

Turning to `NS(=O)(=O)c1cccc(-c2cc(-c3nc(-c4ccc(F)cc4)cc(C(F)(F)F)n3)ccn2)c1` [Example 398, 3-{4-[4-(4-Fluoro-phenyl)-6-trifluoromethyl-pyrimidin-2-yl]-pyridin-2-yl}-benzenesulfonamide], the melting point came to 239.5 °C. `NS(=O)(=O)c1ccc(-c2cc(-c3nc(-c4ccc(F)c(F)c4)cc(C(F)(F)F)n3)ccn2)s1` [Example 399, 5-{4-[4-(3,4-Difluoro-phenyl)-6-trifluoromethyl-pyrimidin-2-yl]-pyridin-2-yl}-thiophene-2-sulfonic acid amide] came in with a melting point of 281 °C. To `NS(=O)(=O)c1cccc(-c2cc(-c3nc(-c4ccc(F)c(F)c4)cc(C(F)(F)F)n3)ccn2)c1` [Example 400, 3-{4-[4-(3,4-Difluoro-phenyl)-6-trifluoromethyl-pyrimidin-2-yl]-pyridin-2-yl}-benzenesulfonamide] belongs 233.5 °C; to `CN(C)S(=O)(=O)c1cccc(-c2cc(-c3nc(-c4ccc(C(F)(F)F)cc4)cc(C(F)(F)F)n3)ccn2)c1` [Example 401, N,N-Dimethyl-3-{4-[4-trifluoromethyl-6-(4-trifluoromethyl-phenyl)-pyrimidin-2-yl]-pyridin-2-yl}-benzenesulfonamide], 225 °C. The compound `CNS(=O)(=O)c1cccc(-c2cc(-c3nc(-c4ccc(C(F)(F)F)cc4)cc(C(F)(F)F)n3)ccn2)c1` [Example 402, N-Methyl-3-{4-[4-trifluoromethyl-6-(4-trifluoromethyl-phenyl)-pyrimidin-2-yl]-pyridin-2-yl}-benzenesulfonamide] registered a melting point of 174 °C.

Consider `CC(C)CN(C)S(=O)(=O)c1cccc(-c2cc(-c3nc(-c4ccc(C(F)(F)F)cc4)cc(C(F)(F)F)n3)ccn2)c1` [Example 403, N-Isobutyl-N-methyl-3-{4-[4-trifluoromethyl-6-(4-trifluoromethyl-phenyl)-pyrimidin-2-yl]-pyridin-2-yl}-benzenesulfonamide], for which the melting point is 144 °C. Under `CCCN(C)S(=O)(=O)c1cccc(-c2cc(-c3nc(-c4ccc(C(F)(F)F)cc4)cc(C(F)(F)F)n3)ccn2)c1` [Example 404, N-Methyl-N-propyl-3-{4-[4-trifluoromethyl-6-(4-trifluoromethyl-phenyl)-pyrimidin-2-yl]-pyridin-2-yl}-benzenesulfonamide] stands 144 °C. The compound `O=S(=O)(NCc1ccccc1)c1cccc(-c2cc(-c3nc(-c4ccc(C(F)(F)F)cc4)cc(C(F)(F)F)n3)ccn2)c1` [Example 405, N-Benzyl-3-{4-[4-trifluoromethyl-6-(4-trifluoromethyl-phenyl)-pyrimidin-2-yl]-pyridin-2-yl}-benzenesulfonamide] registered a melting point of 202.5 °C. As to `O=S(=O)(NCCc1ccccc1)c1cccc(-c2cc(-c3nc(-c4ccc(C(F)(F)F)cc4)cc(C(F)(F)F)n3)ccn2)c1` [Example 406, N-Phenethyl-3-{4-[4-trifluoromethyl-6-(4-trifluoromethyl-phenyl)-pyrimidin-2-yl]-pyridin-2-yl}-benzenesulfonamide], the melting point came out at 201 °C. Consider `O=S(=O)(NCC1CC1)c1cccc(-c2cc(-c3nc(-c4ccc(C(F)(F)F)cc4)cc(C(F)(F)F)n3)ccn2)c1` [Example 408, N-Cyclopropylmethyl-3-{4-[4-trifluoromethyl-6-(4-trifluoromethyl-phenyl)-pyrimidin-2-yl]-pyridin-2-yl}-benzenesulfonamide], for which the melting point came to 133.5 °C. In turn, `O=S(=O)(NC1CC1)c1cccc(-c2cc(-c3nc(-c4ccc(C(F)(F)F)cc4)cc(C(F)(F)F)n3)ccn2)c1` [Example 409, N-Cyclopropyl-3-{4-[4-trifluoromethyl-6-(4-trifluoromethyl-phenyl)-pyrimidin-2-yl]-pyridin-2-yl}-benzenesulfonamide] gave a melting point of 195.5 °C.
